Our source for the IC50 values is patent US20240293392A1, “INHIBITOR COMPOUNDS” (NeoPhore Limited, priority 2021, published 2024).

A value given as a limit tells only on which side of the number the result lay.

The term IC50 denotes the concentration that gives 50% inhibition.

For assay [1], the target named is T1, recombinant N-terminal MLH1 (residues 15-340) (Homo sapiens, UniProt P40692).
T1 construct: recombinant N-terminal MLH1 (residues 15-340)
T1 sequence (P40692 15-340): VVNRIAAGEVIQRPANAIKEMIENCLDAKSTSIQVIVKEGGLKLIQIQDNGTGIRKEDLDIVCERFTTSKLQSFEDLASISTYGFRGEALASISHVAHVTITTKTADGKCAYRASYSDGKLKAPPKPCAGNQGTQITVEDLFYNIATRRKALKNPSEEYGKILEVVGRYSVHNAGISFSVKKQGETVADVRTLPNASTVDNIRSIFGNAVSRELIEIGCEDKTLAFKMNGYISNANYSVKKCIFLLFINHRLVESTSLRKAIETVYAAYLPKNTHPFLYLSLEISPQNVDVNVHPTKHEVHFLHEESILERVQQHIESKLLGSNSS
The assay can be described thus: Fluorescence Polarisation Assay for MLH1. It is filed as binding. The following applies: fluorescence polarisation probe displacement; 100 nM N-terminal MLH1, 5 nM probe compound. Put shortly:
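FP displacement assay: 100 nM MLH1 (residues 15-340) preincubated 30 min at room temperature with compound in 25 mM HEPES pH 7.5, 250 mM NaCl, 10 mM MgCl2, 0.01% Triton X-100, 5 mM DTT, then 5 nM rhodamine-labelled probe added and read immediately. Data normalised to no-inhibitor and no-enzyme controls.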

In assay [2] the target is T2, recombinant N-terminal PMS2 (residues 1-365) (Homo sapiens, UniProt P54278).
T2 construct: recombinant N-terminal PMS2 (residues 1-365)
T2 sequence (P54278 1-365): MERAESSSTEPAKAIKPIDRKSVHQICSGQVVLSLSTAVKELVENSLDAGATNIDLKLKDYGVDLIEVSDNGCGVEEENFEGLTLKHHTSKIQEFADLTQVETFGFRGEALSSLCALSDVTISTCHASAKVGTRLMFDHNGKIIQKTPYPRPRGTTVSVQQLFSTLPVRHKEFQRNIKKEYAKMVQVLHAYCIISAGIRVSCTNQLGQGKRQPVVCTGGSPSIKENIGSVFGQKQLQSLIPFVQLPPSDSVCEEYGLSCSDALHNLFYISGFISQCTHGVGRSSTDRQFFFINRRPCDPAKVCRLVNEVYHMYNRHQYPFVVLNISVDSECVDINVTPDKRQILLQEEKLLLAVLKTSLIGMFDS
The assay can be described thus: Fluorescence Polarisation Assay for PMS2. The class given is binding. The following applies: fluorescence polarisation probe displacement; 10 nM N-terminal PMS2, 5 nM probe compound; read-out: PMS2 IC50. Put shortly: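 Competition fluorescence polarisation with 10 nM N-terminal PMS2 and 5 nM fluorescent probe (final), read after 1 h at room temperature following 30 min compound pre-incubation. Data normalised to no-inhibitor and no-enzyme controls; single-point screening or serial dilutions for potency.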
On the technique in general: Polarisation of emitted light reports the rotation of a fluorescent probe.

Turning to `CN1CCC(Oc2cc3c(c(N[C@H]4CCOC4)c2)CN(C(=O)c2c(O)cc(O)cc2OCc2ccccc2)CC3)CC1` [Example 139, (S)-(2-(Benzyloxy)-4,6-dihydroxyphenyl)(6-((1-methylpiperidin-4-yl)oxy)-8-((tetrahydrofuran-3-yl)amino)-3,4-dihydroisoquinolin-2(1H)-yl)methanone], the IC50 in assay [1] and in assay [2] was < 1000 nM in each case.

`O=C(c1c(O)cc(O)cc1OCc1ccccc1)N1CCc2cccc(NC3CCS(=O)(=O)C3)c2C1` (stereo not drawn) [Example 147, (2-(Benzyloxy)-4,6-dihydroxyphenyl)(8-((1,1-dioxidotetrahydrothiophen-3-yl)amino)-3,4-dihydroisoquinolin-2(1H)-yl)methanone]: the IC50 is < 1000 nM in assay [1] and 1000 to 10000 nM in assay [2].

With `O=C(c1c(O)cc(O)cc1OCc1ccccc1)N1Cc2cccc(OCc3cncnc3)c2C1` [Example 89, (2-(Benzyloxy)-4,6-dihydroxyphenyl)(4-(pyrimidin-5-ylmethoxy)isoindolin-2-yl)methanone], the IC50 in assay [1] and in assay [2] was < 1000 nM throughout.

Take `CN1C[C@@H](Nc2cccc3c2CN(C(=O)c2c(O)cc(O)cc2OCc2ccccn2)CC3)CC1=O` [Example 58, (S)-4-((2-(2,4-Dihydroxy-6-(pyridin-2-ylmethoxy)benzoyl)-1,2,3,4-tetrahydroisoquinolin-8-yl)amino)-1-methylpyrrolidin-2-one]: the IC50 in assay [1] was < 1000 nM; in assay [2], > 10000 nM.

Turning to `O=C(c1c(O)cc(O)cc1OCc1ccccc1)N1Cc2ccc(CN3CCNCC3)cc2C1` [Example 3, (2-(Benzyloxy)-4,6-dihydroxyphenyl)(5-(piperazin-1-ylmethyl)isoindolin-2-yl)methanone], the IC50 in assay [1] is < 1000 nM; in assay [2], 1000 to 10000 nM.

Take `O=C(c1c(O)cc(O)cc1OCc1ccccc1)N1Cc2cccc(NCc3cocn3)c2C1` [Example 20, (2-(Benzyloxy)-4,6-dihydroxyphenyl)(4-((oxazol-4-ylmethyl)amino)isoindolin-2-yl)methanone]: the IC50 was < 1000 nM in assay [1] and 1000 to 10000 nM in assay [2].

As to `CN1C[C@H](Nc2cccc3c2CN(C(=O)c2c(O)cc(O)cc2OCc2ccccc2)C3)CC1=O` [Example 136, (R)-4-((2-(2-(Benzyloxy)-4,6-dihydroxybenzoyl)isoindolin-4-yl)amino)-1-methylpyrrolidin-2-one], the IC50 in assay [1] and in assay [2] was < 1000 nM throughout.

For the compound `Cc1c[nH]c(=O)cc1Nc1cccc2c1CN(C(=O)c1c(O)cc(O)cc1OCc1ccccc1)C2` [Example 24, 4-((2-(2-(benzyloxy)-4,6-dihydroxybenzoyl)isoindolin-4-yl)amino)-5-methylpyridin-2(1H)-one], the IC50 in assay [1] and in assay [2] was 1000 to 10000 nM in each case.

Take `O=C(c1c(O)cc(O)cc1OCc1ccccc1)N1Cc2cccc(CNC3COC3)c2C1` [Example 81, (2-(Benzyloxy)-4,6-dihydroxyphenyl)(4-((oxetan-3-ylamino)methyl)isoindolin-2-yl)methanone]: the half-maximal inhibitory concentration (IC50) in assay [1] and in assay [2] was 1000 to 10000 nM each time.

Consider `COCCOc1cc2c(c(N[C@@H]3CCOC3)c1)CN(C(=O)c1c(O)cc(O)cc1OCc1ccccn1)CC2` [Example 142, (R)-(2,4-Dihydroxy-6-(pyridin-2-ylmethoxy)phenyl)(6-(2-methoxyethoxy)-8-((tetrahydrofuran-3-yl)amino)-3,4-dihydroisoquinolin-2(1H)-yl)methanone], for which the IC50 in assay [1] was < 1000 nM; in assay [2] it was > 10000 nM.

With `O=C(c1c(O)cc(O)cc1OCc1ccccc1)N1Cc2ccc(CNC3CCOC3)cc2C1` (stereo not drawn) [Example 145, (2-(Benzyloxy)-4,6-dihydroxyphenyl)(5-(((tetrahydrofuran-3-yl)amino)methyl)isoindolin-2-yl)methanone], the IC50 in assay [1] and in assay [2] was < 1000 nM in each case.

Consider `O=C(c1c(O)cc(O)cc1OCc1ccccc1)N1Cc2cccc(NC3CCCOC3)c2C1` (stereo not drawn) [Example 14, (2-(Benzyloxy)-4,6-dihydroxyphenyl)(4-((tetrahydro-2H-pyran-3-yl)amino)isoindolin-2-yl)methanone], for which the IC50 was < 1000 nM in assay [1] and 1000 to 10000 nM in assay [2].

Consider `O=C(c1c(O)cc(O)cc1OCc1ccccc1)N1Cc2ccccc2C(O)C1` (single isomer, unassigned) [Example 50, (2-Benzyloxy-4,6-dihydroxy-phenyl)-(4-hydroxy-3,4-dihydro-1H-isoquinolin-2-yl)methanone], for which the IC50 was 1000 to 10000 nM in assay [1] and > 10000 nM in assay [2].

Turning to `CN(C)Cc1cc2c(c(N[C@H]3CCOC3)c1)CN(C(=O)c1c(O)cc(O)cc1OCc1ccccc1)CC2` [Example 125, (S)-(2-(Benzyloxy)-4,6-dihydroxyphenyl)(6-((dimethylamino)methyl)-8-((tetrahydrofuran-3-yl)amino)-3,4-dihydroisoquinolin-2(1H)-yl)methanone], the IC50 in assay [1] and in assay [2] was < 1000 nM in each case.

In the case of `CN(C)C(=O)c1ccc2c(c1)CN(C(=O)c1c(O)cc(O)cc1OCc1ccccc1)C2` [Example 87, 2-(2-(Benzyloxy)-4,6-dihydroxybenzoyl)-N,N-dimethylisoindoline-5-carboxamide], the IC50 in assay [1] and in assay [2] was < 1000 nM each time.

In the case of `CN1CC(Nc2cccc3c2CN(C(=O)c2c(O)cc(O)cc2OCc2ccccc2)C3)CC1=O` (stereo not drawn) [Example 18, 4-((2-(2-(Benzyloxy)-4,6-dihydroxybenzoyl)isoindolin-4-yl)amino)-1-methylpyrrolidin-2-one], the IC50 in assay [1] is < 1000 nM; in assay [2] it was 1000 to 10000 nM.

`COc1cc2c(c(NC3CCOC3)c1)CN(C(=O)c1c(O)cc(O)cc1OCc1ccccc1)CC2` (stereo not drawn) [Example 54, (2-(Benzyloxy)-4,6-dihydroxyphenyl)(6-methoxy-8-((tetrahydrofuran-3-yl)amino)-3,4-dihydroisoquinolin-2(1H)-yl)methanone]: the IC50 in assay [1] was < 1000 nM; in assay [2], 1000 to 10000 nM.

For the compound `O=C(c1c(O)cc(O)cc1OCc1ccccc1)N1Cc2cccc(NC34CCC(C3)OC4)c2C1` (stereo not drawn) [Example 53, (4-((2-Oxabicyclo[2.2.1]heptan-4-yl)amino)isoindolin-2-yl)(2-(benzyloxy)-4,6-dihydroxyphenyl)methanone], the IC50 was < 1000 nM in assay [1] and 1000 to 10000 nM in assay [2].

As to `O=C(c1c(O)cc(O)cc1OCc1ccccc1)N1Cc2cccc(NC3CCCOC3)c2C1` (single isomer, unassigned) [Example 30, (2-(Benzyloxy)-4,6-dihydroxyphenyl)(4-((tetrahydro-2H-pyran-3-yl)amino)isoindolin-2-yl)methanone], the half-inhibitory concentration (IC50) was < 1000 nM in assay [1] and 1000 to 10000 nM in assay [2].

Consider `O=C(c1c(O)cc(O)cc1OCc1cccnn1)N1Cc2cccc(NC3CCOC3)c2C1` (stereo not drawn) [Example 99, (2,4-Dihydroxy-6-(pyridazin-3-ylmethoxy)phenyl)(4-((tetrahydrofuran-3-yl)amino)isoindolin-2-yl)methanone], for which the 50% inhibitory concentration (IC50) in assay [1] is 1000 to 10000 nM; in assay [2], > 10000 nM.

For `NC(=O)c1ccc(Nc2cccc3c2CN(C(=O)c2c(O)cc(O)cc2OCc2ccccc2)CC3)cc1` [Example 75, 4-((2-(2-(Benzyloxy)-4,6-dihydroxybenzoyl)-1,2,3,4-tetrahydroisoquinolin-8-yl)amino)benzamide], the IC50 in assay [1] and in assay [2] was > 10000 nM each time.

As for `CN(C)CCOc1cc2c(c(N[C@H]3CCOC3)c1)CN(C(=O)c1c(O)cc(O)cc1OCc1ccccc1)CC2` [Example 132, (S)-(2-(Benzyloxy)-4,6-dihydroxyphenyl)(6-(2-(dimethylamino)ethoxy)-8-((tetrahydrofuran-3-yl)amino)-3,4-dihydroisoquinolin-2(1H)-yl)methanone], the IC50 in assay [1] and in assay [2] was < 1000 nM each time.

In the case of `O=C(c1c(O)cc(O)cc1OCc1ccccc1)N1Cc2ccc(CN3CCOCC3)cc2C1` [Example 12, (2-(Benzyloxy)-4,6-dihydroxyphenyl)(5-(morpholinomethyl)isoindolin-2-yl)methanone], the IC50 in assay [1] and in assay [2] was < 1000 nM throughout.

For the compound `O=C(c1c(O)cc(O)cc1OCc1ccccc1)N1CCc2cccc(Nc3ccnnc3)c2C1` [Example 120, (2-(Benzyloxy)-4,6-dihydroxyphenyl)(8-(pyridazin-4-ylamino)-3,4-dihydroisoquinolin-2(1H)-yl)methanone], the IC50 was < 1000 nM in assay [1] and 1000 to 10000 nM in assay [2].
